Columns and labels:
[1] = system: C57B16 mice on a high fat diet (DIO); experiment: GPR120 DIO mice OGTT screening; type: in vivo, mouse; set-up: DIO Lowering Glucose AUC (−30 to 90) @ 10 mg/kg: unit not given here; details: for DIO Lowering Glucose AUC (−30 to 90) @ 10 mg/kg: 10 mg/kg dosed 30 min before PO glucose, change from vehicle; for change in vivo at 10 mg/kg: Mus musculus, read-out: DIO Lowering Glucose AUC (−30 to 90) @ 10 mg/kg, heading: DIO Lowering Glucose AUC @ 10 mg/kg, 10 mg/kg dosed 30 min before PO glucose, change from vehicle
Experimental: 18-22 week old, C57B16 mice on a high fat diet (60% HFD) for 12-16 weeks (ave. body weight ˜37-41 g) were fasted for 6 hr, with removal of food occurring at 7 am on the morning of the study. The animals were sorted into treatment groups the day before the study by body weight. Animals outside the bounds of ˜30-50 g were left out of the study. The animals had been handled and shammed a total of 5-8 days (1-3 days immediately prior to the study). Glucose (in 1 mL syringes) was drawn up the morning of the study. Test compounds were kept spinning and were only drawn into 1 ml syringes prior to study commencement. Animals were bled via tail snip to determine basal glucose levels prior to dosing of treatments. An Ascensia BREEZE Blood Glucose Monitoring System by Bayer was used for determining glucose levels.
Animals were moved into the testing room at ˜9-11 am, to yield them time to acclimate. The bleeds and dosing started at approximately 1 pm in 30-second intervals per animal. All groups were dosed 30 minutes prior to glucose administration at a dose volume of 10 ml/kg (the dose volume was calculated separately for each individual animal). Test compounds were administered at one or more of the following dosages: 0.1 mg/kg, 0.3 mg/kg, 1 mg/kg, 3 mg/kg and 10 mg/kg.
Thirty minutes after the first dose (with test compound) animals were bled again for a second baseline, or T=0, and immediately dosed with glucose (20% solution; TEKNOVA, 250 ml sterile bottle w/catalogue number G0525) via a PO injection. The exact dose volume for glucose was also calculated separately for each individual animal.
Blood glucose was measured at 15, 30, 45, 60, and 90 minutes post-glucose administration via the snipped tail. If an animal reached a value of “HI”, the upper limit of the glucometer (600 mg/dl) was substituted as the blood glucose value and the study was analyzed as normal with no exclusions. If 50% or more of any treatment group reaches a “HI” value at least once, the study was considered invalid and repeated. Glucose values were typed into an EXCEL spreadsheet where they were used to calculate glucose AUC and delta AUC post-compound and post-glucose. The glucose excursion curves and the different versions of the AUC's were graphed in GraphPad Prism 5.
Note: All statistics completed in this study were completed using the statistical software package GraphPad Prism 5. Standard procedures for analyzing data sets from screening GPR120 compounds in DIO mouse OGTT's were as listed here below. In addition to the statistics that were run using GraphPad Prism 5, Microsoft Excel was used to calculate the percent changes in AUC from vehicle groups as detailed below.
Change from −30 to 0 BSLN Glucose, Raw Glucose AUC −30 to 90 min, Delta Glucose AUC −30 to 90 min, Raw Glucose AUC 0 to 90 min, Delta Glucose AUC 0 to 90 min were analyzed using Column Statistics Analysis, with mean values used to calculate % change from the vehicle mean group, as well as mean, SEM and/or % change from vehicle, where appropriate; and using One-Way ANOVA w/a Tukey Post-Test (Comparing All Pairs of Columns) with each treatment group examined to see if it was statistically significant compared to vehicle (*=P<0.05, **=P<0.01, ***=P<0.001).
Representative compounds of the present invention were tested according to the procedure as described in Biological Example 3, with results as listed in Table 2, below. Where a compound was tested more than once, each result is listed individually.

C57bl/6J mice [2] = experiment: C57bl6 mouse OGTT; type: in vivo; details: 3 mg/kg dosed 30 min before glucose PO 3 g/kg
Experimental: (§1) Male, C57bl/6J Mice were ordered in at 8 weeks of age from Jackson Labs. Individual mice weighed anywhere in the range of 25-30 grams on study day. The mice were fasted, with removal of food occurring at 7 am on the morning of the study. Animals were moved into the room at 10:00 am, to give them time to acclimate. Glucose (insulin syringes) was drawn up either the night before or the morning of the study. Glucose was dosed (IP) at 1.5 g/kg at 7.5 ml/kg (20% glucose straight TEKNOVA, 250 ml sterile bottle w/catalogue number G0525). Test compounds were kept spinning and were only drawn into the syringes prior to study commencement. Animals were bled via tail snip to determine basal glucose levels prior to dosing of treatments. An Ascensia BREEZE Blood Glucose Monitoring System by Bayer (using unique 10-test disks) was used for determining glucose levels. The bleeds started at approximately 12:45 pm and dosing started, at 1-minute intervals, immediately after. All groups were dosed 30 minutes prior to glucose administration at a dose volume of 10 ml/kg (the dose volume was calculated separately for each individual animal). Thirty minutes after the first dose animals were bled again for a second baseline, or T=0, and immediately dosed with glucose via an i.p. injection. The exact dose volume for glucose was also calculated separately for each individual animal. Glucose measurements were taken at −30 min prior to compound dose, at t=0 (immediately prior to glucose dose), and at 15, 30, 45, 60, 90 min post glucose dose.
Glucose values were entered into an Excel sheet and graphed in GraphPad Prism. The following were calculated from Prism: Change from −30 to 0 BSLN Glucose, Raw Glucose AUC −30 to 90 min, Delta Glucose AUC −30 to 90 min, Raw Glucose AUC 0 to 90 min, Delta Glucose AUC 0 to 90 min.
The assay design is the same as that described above for the C57bl6 mouse IPGTT. The difference is that glucose was dosed PO at 3 g/kg, 7.5 ml/kg of 40% glucose.
Representative compounds of the present invention were tested according to the procedures as described in Biological Example 4, above with results as listed in Table 3, below. […] Where a compound was tested more than once, each result is listed individually.

C57bl/6J mice [3] = experiment: GPR120 C57bl6 mouse IPGTT; type: in vivo; details: 10 mg/kg dosed 30 min before glucose IP 1.5 g/kg
Experimental: as §1, with “Glucose measurements were taken at −30 min prior to compound dose, at t=0 (immediately prior to glucose dose), and at 15, 30, 45, 60, 90 min post glucose dose.” left out

| Molecule | DIO Lowering Glucose AUC (−30 to 90) @ 10 mg/kg [1] | C57 OGTT 3 mg/kg (C57bl/6J mice [2]) | also measured |
| --- | --- | --- | --- |
| CCc1ccc(-c2nsc(C(F)(F)F)c2COc2ccc(CCC(=O)O)c(F)c2F)cc1 [Cpd 73, 3-(4-((3-(4-ethylphenyl)-5-(trifluoromethyl)isothiazol-4-yl)methoxy)-2,3-difluorophenyl)propanoic acid] | −0.51 |  |  |
| CCc1ccc(-c2snc(Cl)c2COc2ccc(CCC(=O)O)c(C)c2C)cc1 [Cpd 85, 3-(4-[[3-chloro-5-(4-ethylphenyl)-1,2-thiazol-4-yl]methoxy]-2,3-dimethylphenyl)propanoic acid] |  | −49 |  |
| CCc1ccc(-c2cc(F)sc2COc2ccc(CCC(=O)O)c(C)c2C)cc1 [Cpd 1, 3-(4-[[3-(4-ethylphenyl)-5-fluorothiophen-2-yl]methoxy]-2,3-dimethylphenyl)propanoic acid] |  |  | change in vivo at 10 mg/kg [1]: -26% |
| Cc1c(CCC(=O)O)ccc(OCc2sc(F)cc2-c2ccc(Cl)cc2)c1C [Cpd 3, 3-(4-((3-(4-chlorophenyl)-5-fluorothiophen-2-yl)methoxy)-2,3-dimethylphenyl)propanoic acid] |  |  | change in vivo at 10 mg/kg [1]: -49% |
| OCCCc1cc(F)c(OCc2c(-c3ccc(Cl)cc3)nsc2C(F)(F)F)c(F)c1 [Cpd 100, 3-(4-[[3-(4-chlorophenyl)-5-(trifluoromethyl)-1,2-thiazol-4-yl]methoxy]-3,5-difluorophenyl)propan-1-ol] |  | −39 |  |
| OCCCc1ccc(OCc2c(Cl)nsc2-c2ccc(Cl)cc2)c(F)c1F [Cpd 102, 3-(4-((3-chloro-5-(4-chlorophenyl)isothiazol-4-yl)methoxy)-2,3-difluorophenyl)propan-1-ol] |  | −32 |  |
| Cc1ccc(-c2nsc(C(F)(F)F)c2COc2c(F)cc(CCC(=O)O)cc2F)c(F)c1 [Cpd 65, 3-(3,5-difluoro-4-[[3-(2-fluoro-4-methylphenyl)-5-(trifluoromethyl)-1,2-thiazol-4-yl]methoxy]phenyl)propanoic acid] | −0.61 |  |  |
| Cc1ccc(-c2nsc(C(F)(F)F)c2COc2c(F)cc(CC(C)C(=O)O)cc2F)c(F)c1 (stereo not shown) [Cpd 76, 3-(3,5-difluoro-4-[[3-(2-fluoro-4-methylphenyl)-5-(trifluoromethyl)-1,2-thiazol-4-yl]methoxy]phenyl)-2-methylpropanoic acid] | −0.8 |  |  |
| 3-(4-[[3-(4-ethylphenyl)-5-(trifluoromethyl)-1,2-thiazol-4-yl]methoxy]-3,5-difluorophenyl)propanoic acid [Cpd 70] | −0.5 |  |  |
| O=C(O)CCc1cc(F)c(OCc2c(-c3ccc(Cl)cc3F)nsc2C(F)(F)F)c(F)c1 [Cpd 74, 3-(4-((3-(4-chloro-2-fluorophenyl)-5-(trifluoromethyl)isothiazol-4-yl)methoxy)-3,5-difluorophenyl)propanoic acid] | −0.71 |  |  |
| O=C(O)CCc1cc(F)c(OCc2c(C3CCCC3)nsc2C(F)(F)F)c(F)c1 [Cpd 71, 3-(4-[[3-cyclopentyl-5-(trifluoromethyl)-1,2-thiazol-4-yl]methoxy]-3,5-difluorophenyl)propanoic acid] | −0.52 | −37 |  |
| 3-(4-[[3-(4-ethylphenyl)-5-(trifluoromethyl)-1,2-thiazol-4-yl]methoxy]-1-benzothiophen-7-yl)propanoic acid [Cpd 92] |  | −39 | C57 IPGTT 10 mg/kg (C57bl/6J mice [3]): −41 |
| O=C(O)CCc1cc(F)c(OCc2c(-c3ccc(Cl)c(F)c3)nsc2C(F)(F)F)c(F)c1 [Cpd 67, 3-(4-((3-(4-chloro-3-fluorophenyl)-5-(trifluoromethyl)isothiazol-4-yl)methoxy)-3,5-difluorophenyl)propanoic acid] | −0.78 |  |  |
| Cc1c(CCC(=O)O)ccc(OCc2c(-c3ccc(Cl)cc3)nsc2C(F)(F)F)c1C [Cpd 142, 3-(4-((3-(4-chlorophenyl)-5-(trifluoromethyl)isothiazol-4-yl)methoxy)-2,3-dimethylphenyl)propanoic acid] |  | −49 |  |
